The text below walks through data of patent publication US10023587B2, “Oxabicycloheptanes and oxabicycloheptenes, their preparation and use” (LIXTE BIOTECHNOLOGY, INC., priority 2007, dated 2018).

“Also recorded” adds a separate entry of the source. Like-named read-outs stand apart in the source and are kept apart here.

One test deals with HL-60 cells. Description: CellTiter-Glo assay, HL-60. It is filed as cell-based. To be noted: Homo sapiens; HL-60 Leukemia promyelocytic, 72 hr; read-out: IC50 (50% Inhibition of Proliferation). The method, then:
(§1) MDA-MB-231, HT-29, NCI-H460, NCI-H522, NCI-H69, GXF-209, HepG2, OVAR-3, PANC-1, DU-145, LNCAP, HL-60, K-562, and MOLT-4 cell lines were either obtained from the American Type Culture Collection (ATCC; Manassas, Va.), or from the National Cancer Institute (NCI; Frederick, Md.). RPMI-1640 media, L-glutamine dipeptide (HyQ SG-200), and HEPES were obtained from Hyclone (Logan, Utah).
(§2) All cell lines were routinely cultured twice weekly in RPMI-1640 medium supplemented with 2 mM L-glutamine dipeptide, 10 mM HEPES, and 10% FBS.
(§3) The adherent cell lines MDA-MB-231, HT-29, NCI-H460, NCI-H522, GXF-209, HepG2, OVAR-3, PANC-1, DU-145, and LNCAP cells were each seeded into two 96-well plates at 2,500 cells per well in a total volume of 50 uL and incubated in a 37° C. humidified 5% CO2 cell culture incubator overnight. The suspension cell lines NCI-H69, HL-60, K-562, and MOLT-4 were each seeded into two 96-well plates at 10,000 cell per well in a total volume of 50 uL and incubated in a 37° C. humidified 5% CO2 incubator overnight.
(§4) This was followed by making 2× stocks of the final concentrations required in RPMI-1640 medium. […]
(§5) Briefly, plates were removed from the incubator and placed on the bench at room temperatures for 30 minutes. […] Luminescence was then recorded using the PerkinElmer Microbeta scintillation and luminescence counter (Trilux).

A further test concerns NCI-H460 cells. As to the kind of experiment: CellTiter-Glo assay, NCI-H460. To be noted: Homo sapiens; NCI-H460 Lung: large cell, 72 hr; read-out: IC50 (50% Inhibition of Proliferation). Type of test: cell-based. The method, then:
as §1, §2, §3, §4, §5
For orientation: Cellular ATP, detected with luciferase, serves as a proxy for viable cell number.

For another test, the system named is C. glabrata. Description: Antifungal susceptibility testing (broth dilution), C. glabrata. The settings on record: for MIC: Nakaseomyces glabratus, read-out: minimum inhibitory concentration (MIC). Type of test: cell-based, Candida glabrata. The method, then: (§6) Anti-fungal testing was completed with a common lot for compounds 100 and 102.
(§7) A 10 mg portion of each powder was weighed out and added to 1 ml of sterile distilled water for compound 100 and DMSO for compound 102. The resulting concentration of […] was diluted to a working concentration of 640 μg/ml for each compound. All subsequent dilutions were also made using the respective diluents. Final testing concentrations ranged from 0.125-64 μg/ml.
(§8) A total of 23 isolates were tested to include 3 Candida albicans, 3 Candida glabrata, 3 Cryptococcus neoformans, 3 Aspergillus fumigatus, 3 Rhizopus oryzae, 3, Fusarium solani, 3 Pseudallescheria boydii, and 2 […] rubrum. All isolates were clinical isolates submitted to the Fungus Testing Laboratory for evaluation. Antifungal susceptibility testing was accomplished according to the methods outlined in the National Committee for Clinical Laboratory Standards, M-27A2, Reference Method for Broth Dilution Antifungal Susceptibility Testing of Yeasts; Approved Standard, and M38-A “Reference Method for Broth Dilution Antifungal Susceptibility Testing of Conidium-Forming Filamentous Fungi; Approved Standard”. This includes testing in RPMI-1640 with glutamine and without bicarbonate, an inoculum size of 0.5-2.5×10^3 for yeasts or 1-5×10^4 for moulds, and incubation at 35° C. for 24 and 48 hours.
For orientation: In broth dilution the organism is exposed to a series of concentrations in liquid medium.

The subject of a further test is GBM cell line U373. As to the kind of experiment: Inhibition of growth of GBM cell line U373 by single agents (cell counts). To be noted: for Inhibition of growth of cell line U373 (in words): single agent, 7 days. Type of test: cell-based, human. An excerpt: From graphic plots of the glioblastoma multiforme GBM cell line U373 (available from the National Institute of Neurological Disorders and Stroke Molecular Pathogenesis Unit, Building 10, Room 5 D37, National Institutes of Health, 900 Rockville Pike, Bethesda, Md., 20892) as a function of exposure to different doses of drug for 7 days, the concentration of each compound that inhibited brain tumor cell proliferation by 50% (IC50) was estimated.
To identify novel therapeutic targets for the treatment of glioblastoma multiforme (GBM), cantharidin analogues were evaluated for their ability to inhibit growth of glioblastoma multiforme cells. Specifically, GBM cell line U373 was used in evaluations.
The total number of cells is counted in the triplicate cultures at each dose and in controls after 7 days and the average number of cells and the standard deviation is determined.
The amount of inhibition of GBM cell growth is expressed as the proportion of the number of cells in the experimental dishes compared to the number of cells in control dishes containing only the drug vehicle and culture medium. The average percent of control is plotted and bracketed by one standard deviation calculated from the triplicate measurements.
For all cell culture experiments, cells are allowed to grow in the presence or absence of different concentrations of drug or in the presence of the vehicle used to dissolve the drug, PBS for compound 100 and DMSO for compound 102. Cell counts are done in triplicate on day 3 and day 7 and inhibition of growth is expressed as a percentage of the number of cells present in the experimental well divided by the number of cells in a control well.

A further test concerns NCI-H69 cells. As to the kind of experiment: CellTiter-Glo assay, NCI-H69. To be noted: Homo sapiens; NCI-H69 Lung small cell, 72 hr; read-out: IC50 (50% Inhibition of Proliferation). It is filed as cell-based. As to the method:
as §1, §2, §3, §4, §5

In the next test the test system is P. boydii. Description: Antifungal susceptibility testing (broth dilution), P. boydii. The settings on record: for MIC: Scedosporium boydii, read-out: minimum inhibitory concentration (MIC). Type of test: cell-based, Pseudallescheria boydii. The method, then: as §6, §7, §8
For a further test, the system named is A. fumigatus. Description: Antifungal susceptibility testing (broth dilution), A. fumigatus. It is filed as cell-based, Aspergillus fumigatus. To be noted: for MIC: Aspergillus fumigatus, read-out: minimum inhibitory concentration (MIC). The method, then: as §6, §7, §8

Turning to `CC(C)(C)OC(=O)N1CCN(C(=O)C2C(C(=O)O)[C@H]3CC[C@@H]2O3)CC1` (stereo in doubt) [Compound 102, 4-(3-Carboxy-7oxa-bicyclo[2.2.1]heptane-2-carbonyl)piperazine-1-carboxylic acid tert-butyl ester], the results for the IC50 in the test on HL-60 cells, in the test on NCI-H460 cells and in the test with NCI-H69 cells were 6.5 µM, 17.5 µM and 24.6 µM, respectively. Moreover, the MIC was over 64 µg/mL with C. glabrata (isolate 07-2964, 24 Hours); over 64 µg/mL in the test with C. glabrata (isolate 07-2964, 48 Hours); over 64 µg/mL with P. boydii (isolate 07-1333, 24 Hours); over 64 µg/mL in the test with P. boydii (isolate 07-1333, 48 Hours); over 64 µg/mL in the test on A. fumigatus (isolate 05-388, 24 Hours); over 64 µg/mL in the test with A. fumigatus (isolate 05-388, 48 Hours). The “minimum inhibitory concentration (MIC)” value in the test with C. glabrata (isolate 07-2965, 24 Hours) is over 64 µg/mL; with C. glabrata (isolate 07-2965, 48 Hours) it was over 64 µg/mL; in the test with C. glabrata (isolate 07-3013, 24 Hours), over 64 µg/mL; in the test on C. glabrata (isolate 07-3013, 48 Hours), over 64 µg/mL; with P. boydii (isolate 07-1502, 24 Hours) it was over 64 µg/mL; with P. boydii (isolate 07-1502, 48 Hours), over 64 µg/mL. In addition, the “minimum inhibitory concentration (MIC)” value was over 64 µg/mL in the test on P. boydii (isolate 07-1601, 24 Hours); over 64 µg/mL with P. boydii (isolate 07-1601, 48 Hours); over 64 µg/mL with A. fumigatus (isolate 06-4126, 24 Hours); over 64 µg/mL with A. fumigatus (isolate 06-4126, 48 Hours); over 64 µg/mL with A. fumigatus (isolate 07-2039, 24 Hours); over 64 µg/mL in the test with A. fumigatus (isolate 07-2039, 48 Hours). Further, in the test on GBM cell line U373, the “Inhibition of growth of cell line U373 (in words)” value was “highly potent”.
For `CN1CCN(C(=O)C2C(C(=O)O)[C@H]3CC[C@@H]2O3)CC1` (some centres unmarked) [Compound 100, Endothall 4-Methylpiperazine Monoamide], the IC50 was 7.7 µM in the test with HL-60 cells; 24.3 µM in the test with NCI-H460 cells; 3000 nM in the test with GBM cell line U373 (Homo sapiens, U373 MG, 168 h, U373, exposure for 7 days, estimated from graphic plots (FIG. 1), read-out: concentration that inhibited brain tumor cell proliferation by 50% (IC50)); 23.9 µM in the test on NCI-H69 cells. Moreover, the MIC in the test on C. glabrata (24 h), with C. glabrata (48 h), in the test with P. boydii (24 h), in the test with P. boydii (48 h), with A. fumigatus (24 h) and in the test with A. fumigatus (48 h) was over 64 µg/mL throughout. Further, the “minimum inhibitory concentration (MIC)” value in the test on C. glabrata (isolate 07-2965, 24 Hours) was over 64 µg/mL; in the test with C. glabrata (isolate 07-2965, 48 Hours), over 64 µg/mL; in the test on C. glabrata (isolate 07-3013, 24 Hours), over 64 µg/mL; with C. glabrata (isolate 07-3013, 48 Hours), over 64 µg/mL; in the test with P. boydii (isolate 07-1502, 24 Hours), over 64 µg/mL; in the test on P. boydii (isolate 07-1502, 48 Hours) it was over 64 µg/mL. For the same compound, the “minimum inhibitory concentration (MIC)” value was over 64 µg/mL with P. boydii (isolate 07-1601, 24 Hours); over 64 µg/mL with P. boydii (isolate 07-1601, 48 Hours); over 64 µg/mL in the test with A. fumigatus (isolate 06-4126, 24 Hours); over 64 µg/mL in the test with A. fumigatus (isolate 06-4126, 48 Hours); over 64 µg/mL with A. fumigatus (isolate 07-2039, 24 Hours); over 64 µg/mL with A. fumigatus (isolate 07-2039, 48 Hours). Moreover, the “Inhibitory value against U373, comparison of the two compounds” value in the test on GBM cell line U373 (10 μM, seven days (FIG. 8)) was “identical inhibitory values”. The “Inhibition of growth of cell line U373 (in words)” value with GBM cell line U373 is reported as “potent inhibitor of GBMs in vitro; also recorded: Increasing dosages demonstrate a greater inhibition of growth; also recorded: modest inhibition of growth”; in the test on GBM cell line U373 (listed as compound 100) it was “inhibitory activities at low micromolar concentrations; also recorded: dose dependent inhibition”.
